Laboratory results: patent publication US20260285857A1, “BICYCLIC AND HETEROCYCLIC AMIDE COMPOUNDS” (priority 2024, published 2026)

Tested on: immunoglobulin light chain protein WIL-FL T46L
Experiment: Differential scanning fluorimetry (thermal shift) assay
Type: binding
Conditions: temperature shift [Tm]compound-[Tm]vehicle, recombinant WIL-FL T46L

SMILES	DSF (Table B)	DSF (Table A)
Cc1cc(N2CC[C@](C)(c3ccccc3)C2)cn2nc(C(=O)N3CCC4(CC(=O)N(c5cccc(C(=O)O)n5)C4)C3)nc12 (stereo partly drawn) [Compound 671, 6-[7-[8-methyl-6-[(3R)-3-methyl-3-phenyl-pyrrolidin-1-yl]-[1,2,4]triazolo[1,5-a]pyridine-2-carbonyl]-3-oxo-2,7-diazaspiro[4.4]nonan-2-yl]pyridine-2-carboxylic acid]	***** (>2.5° C.=*****)	
Cc1cc(OC[C@H](C)c2cccc(F)c2)cn2nc(C(=O)NC3CC4(C3)CC(N3CC5C(C3)C5C(=O)O)C4)nc12 (stereo partly shown) [Compound 310]		***** (>2.5° C.=*****)
Cc1cc(N2CC[C@](C)(c3ccccc3)C2)cn2nc(C(=O)N(C)C3(C(=O)O)CC3)nc12 [Compound 164]		***** (>2.5° C.=*****)
Cc1cc(N2CC[C@](C)(c3ccccc3)C2)cn2nc(C34CC(CO3)C4Cn3cn[nH]c3=O)nc12 (stereo partly shown) [Compound 88]		***** (>2.5° C.=*****)
Cc1cc(N2CC[C@](C)(c3ccccc3)C2)cn2nc(C(=O)NC3CC(N4C[C@H](O)[C@@H](O)C4)C3)nc12 (stereo partly shown) [Compound 362]		***** (>2.5° C.=*****)
Cc1cc(N2CC[C@](C)(c3ccccc3)C2)cn2nc(C(=O)NC3CCC(c4cccc(C(=O)O)n4)CC3)nc12 (stereo partly shown) [Compound 229]		***** (>2.5° C.=*****)
COC(=O)c1cc(-n2nnc3c2CCN(C(=O)c2nc4c(C)cc(N5CC[C@](C)(c6ccccc6)C5)cn4n2)C3)ccn1 [Compound 402]		***** (>2.5° C.=*****)
Cc1cc(N2CCC(C)(c3cccc(F)c3)C2)cn2nc(C(=O)NC3CCOC3)nc12 (stereo not shown) [Compound 383]		***** (>2.5° C.=*****)
Cc1cc(N2CC[C@](C)(c3ccccc3)C2)cn2nc(C34CC(CO3)C4c3nc(NC(=O)CC4(C(=O)O)CC4)n[nH]3)nc12 (stereo partly shown) [Compound 559]	***** (>2.5° C.=*****)	
Cc1cc(N2CC[C@](C)(c3ccccc3)C2)cn2nc(C(=O)N3CCC(N4CC5C(C4)C5C(=O)O)CC3)nc12 (stereo partly shown) [Compound 366]		***** (>2.5° C.=*****)
Cc1cc(N2CC[C@](C)(c3ccccc3)C2)cn2nc(C(=O)NC3CCC34CN(c3cccc(C(=O)O)n3)C4)nc12 (stereo partly shown) [Compound 228]		***** (>2.5° C.=*****)
COc1cc(C(=O)O)cc(N2CC[C@@]3(CCN(C(=O)c4nc5c(C)cc(N6CC[C@](C)(c7ccccc7)C6)cn5n4)C3)C2)n1 [Compound 719]	***** (>2.5° C.=*****)	
Cc1cc(N2CC[C@](C)(c3ccccc3)C2)cn2nc(C34CC(CN)(CO3)C4CO)nc12 (stereo partly drawn) [Compound 582, (4-(aminomethyl)-1-(8-methyl-6-((R)-3-methyl-3-phenylpyrrolidin-1-yl)-[1,2,4]triazolo[1,5-a]pyridin-2-yl)-2-oxabicyclo[2.1.1]hexan-5-yl)methanol]	***** (>2.5° C.=*****)	
Cc1cc(N2CC[C@](C)(c3ccccc3)C2)cn2nc(C34CC(CN)(CO3)C4)nc12 [Compound 58]		***** (>2.5° C.=*****)
Cc1cc(N2CC[C@](C)(c3ccccc3)C2)cn2nc(C(=O)NC3CN(CC(=O)O)CC3O)nc12 (stereo partly shown) [Compound 110]		***** (>2.5° C.=*****)
Cc1nc([C@H]2[C@]3(CO)CO[C@@]2(c2nc4c(C)cc(N5CC[C@](C)(c6ccccc6)C5)cn4n2)C3)n[nH]1 [Compound 581, ((1S,4R,5R)-5-(5-methyl-1H-1,2,4-triazol-3-yl)-1-(8-methyl-6-((R)-3-methyl-3-phenylpyrrolidin-1-yl)-[1,2,4]triazolo[1,5-a]pyridin-2-yl)-2-oxabicyclo[2.1.1]hexan-4-yl)methanol]	***** (>2.5° C.=*****)	
Cc1cc(N2CC[C@](C)(c3ccccc3)C2)cn2nc(C34CC(CO3)C4Cc3ncnn3C)nc12 (stereo partly shown) [Compound 86]		***** (>2.5° C.=*****)
Cc1cc(N2CC[C@](C)(c3ccccc3)C2)cn2nc(C(=O)NC3CCN(c4nccc(C(=O)O)n4)CC3)nc12 [Compound 238]		***** (>2.5° C.=*****)
CCC1(c2ccccc2)CN(c2cc(C)c3nc(C(=O)NC4CCN(c5cccc(C(=O)O)n5)CC4)nn3c2)C1 [Compound 390]		***** (>2.5° C.=*****)
Cc1cc(N2CC[C@](C)(c3ccccc3)C2)cn2nc(C(=O)NC34CCC(C(=O)O)(C3)C4)nc12 [Compound 207]		***** (>2.5° C.=*****)
Cc1cc(N2CC[C@](C)(c3ccccc3)C2)cn2nc(C34CC(CO3)C4c3nc(NS(=O)(=O)C4CC(C)(C(=O)O)C4)n[nH]3)nc12 (stereo partly shown) [Compound 565]	***** (>2.5° C.=*****)	
Cc1cc(OC(C)c2ccc(F)c(Cl)c2)cn2nc(C(=O)N3CC[C@@]4(CCC(c5cccc(C(=O)O)n5)C4)C3)nc12 (stereo partly shown) [Compound 412]		* (0-0.5° C.=*)
Cc1cc(N2CC[C@](C)(c3ccccc3)C2)cn2nc(C(=O)NC3CCOCC3)nc12 [Compound 198]		***** (>2.5° C.=*****)

SMILES	DSF (Table B)	DSF (Table A)
Cc1cc(N2CC[C@](C)(c3ccccc3)C2)cn2nc(C34CC(CO3)C4CC(N)=O)nc12 (stereo partly shown) [Compound 85]		***** (>2.5° C.=*****)
Cc1cc(N2CC[C@](C)(c3ccccc3)C2)cn2nc(C34CC(C(=O)O)(CO3)C4c3nc(N)n[nH]3)nc12 (stereo partly drawn) [Compound 545, 5-(3-amino-1H-1,2,4-triazol-5-yl)-1-[8-methyl-6-[(3R)-3-methyl-3-phenyl-pyrrolidin-1-yl]-[1,2,4]triazolo[1,5-a]pyridin-2-yl]-2-oxabicyclo[2.1.1]hexane-4-carboxylic acid]	***** (>2.5° C.=*****)	
Cc1cc(N2CC[C@](C)(c3ccccc3)C2)cn2nc(C(=O)N3CC[C@@]4(CCN(C(=O)CC(C)(C)C(=O)O)C4)C3)nc12 [Compound 707, 2,2-dimethyl-4-[(5R)-2-[8-methyl-6-[(3R)-3-methyl-3-phenyl-pyrrolidin-1-yl]-[1,2,4]triazolo[1,5-a]pyridine-2-carbonyl]-2,7-diazaspiro[4.4]nonan-7-yl]-4-oxo-butanoic acid]	***** (>2.5° C.=*****)	
Cc1cc(N2CC[C@](C)(c3ccccc3)C2)cn2nc(C(=O)NC3CCC(c4ccnc(C(=O)O)c4)CC3)nc12 (stereo partly shown) [Compound 226]		***** (>2.5° C.=*****)
Cc1cc(N2CC3(CC[C@H]3c3cccc(F)c3)C2)cn2nc(C(=O)N3CC[C@@]4(CCN(c5cccc(C(=O)O)n5)C4)C3)nc12 [Compound 736, 6-[(5R)-2-[6-[(7S)-7-(3-fluorophenyl)-2-azaspiro[3.3]heptan-2-yl]-8-methyl-[1,2,4]triazolo[1,5-a]pyridine-2-carbonyl]-2,7-diazaspiro[4.4]nonan-7-yl]pyridine-2-carboxylic acid]	***** (>2.5° C.=*****)	
Cc1cc(N2CC[C@](C)(c3ccccc3)C2)cn2nc(C34CC(CO3)C4N3CC(C)(C)OC3=O)nc12 (stereo partly drawn) [Compound 529, 5,5-dimethyl-3-[1-[8-methyl-6-[(3R)-3-methyl-3-phenyl-pyrrolidin-1-yl]-[1,2,4]triazolo[1,5-a]pyridin-2-yl]-2-oxabicyclo[2.1.1]hexan-5-yl]oxazolidin-2-one]	***** (>2.5° C.=*****)	
CO[C@H]1CN(c2cccc(C(=O)O)n2)CC1NC(=O)c1nc2c(C)cc(N3CC[C@](C)(c4ccccc4)C3)cn2n1 (stereo partly shown) [Compound 666]	***** (>2.5° C.=*****)	
CNC(=O)C12COC(c3nc4c(C)cc(N5CC[C@](C)(c6ccccc6)C5)cn4n3)(C1)C2c1n[nH]c(C)n1 (stereo partly shown) [Compound 41]		***** (>2.5° C.=*****)
Cc1cc(N2CC[C@](C)(c3ccccc3)C2)cn2nc(C(=O)N3C[C@@H]4CN(c5cccc(C(=O)O)n5)C[C@H]4C3)nc12 [Compound 644]	***** (>2.5° C.=*****)	
Cc1cc(N2CC[C@@](C)(c3cccc(F)c3)C2)cn2nc(C(=O)N3CC[C@@]4(CCN(c5cccc(C(=O)O)n5)C4)C3)nc12 [Compound 763, 6-((R)-7-(6-((S)-3-(3-fluorophenyl)-3-methylpyrrolidin-1-yl)-8-methyl-[1,2,4]triazolo[1,5-a]pyridine-2-carbonyl)-2,7-diazaspiro[4.4]nonan-2-yl)picolinic acid]	***** (>2.5° C.=*****)	
Cc1cc(N2CC[C@](C)(c3ccccc3)C2)cn2nc(C(=O)N3CC[C@@]4(CCN(C(=O)c5cccc(C(=O)O)n5)C4)C3)nc12 [Compound 715]	***** (>2.5° C.=*****)	
Cc1cc(N2CC[C@](C)(c3ccccc3)C2)cn2nc(C(=O)NC34CCC(O)(C3)C4)nc12 [Compound 111]		***** (>2.5° C.=*****)
Cc1cc(N2CC[C@](C)(c3ccccc3)C2)cn2nc(C(=O)N3CC[C@@]4(CCN(C5CC(C)(C(=O)O)C5)C4)C3)nc12 (stereo partly shown) [Compound 725]	***** (>2.5° C.=*****)	
Cc1cc(N2CC[C@](C)(c3ccccc3)C2)cn2nc(C34CC(CO3)C4N3CC4(CC(CO)C4)NC3=O)nc12 (stereo partly shown) [Compound 511]	***** (>2.5° C.=*****)	
Cc1cnn(CC23COC(c4nc5c(C)cc(N6CC[C@](C)(c7ccccc7)C6)cn5n4)(C2)C3)n1 [Compound 450]	***** (>2.5° C.=*****)	
Cc1cc(N2CC[C@](C)(c3cccc(Cl)c3)C2)cn2nc(C(=O)N3CC[C@@]4(CCN(c5cccc(C(=O)O)n5)C4)C3)nc12 [Compound 747]	***** (>2.5° C.=*****)	
COC(=O)CC1CCN(C(=O)c2nc3c(C)cc(N4CC[C@](C)(c5ccccc5)C4)cn3n2)C1 (stereo partly shown) [Compound 143]		***** (>2.5° C.=*****)
CNC(=O)c1nn2cc(N3CC[C@](C)(c4ccccc4)C3)cc(C)c2c1COC [Compound 333]		***** (>2.5° C.=*****)
Cc1cc(N2CC[C@](C)(c3ccccc3)C2)cn2nc(C(=O)N3CC[C@H](O)C3)nc12 [Compound 174]		***** (>2.5° C.=*****)
Cc1cc(N2CC[C@](C)(c3ccccc3)C2)cn2nc(C(=O)N3CC4(CCN(c5cccc(C(=O)O)n5)C4)C3)nc12 [Compound 240]		***** (>2.5° C.=*****)
CCC1(c2ccccc2)CN(c2cc(C)c3nc(C(=O)NC)nn3c2)C1 [Compound 33, 6-(3-ethyl-3-phenyl-azetidin-1-yl)-N, 8-dimethyl-[1,2,4]triazolo[1,5-a]pyridine-2-carboxamide]		***** (>2.5° C.=*****)
Cc1cc(N2CC3(CCC3c3cccc(F)c3)C2)cn2nc(C(=O)N3CC[C@@]4(CCN(c5cccc(C(=O)O)n5)C4)C3)nc12 (stereo partly shown) [Compound 737]	***** (>2.5° C.=*****)	
Cc1cc(N2CC[C@](C)(c3ccccc3)C2)cn2nc(C(=O)NC3CC4(C3)CN(C(=O)CC(C)(C)C(=O)O)C4)nc12 [Compound 601]	***** (>2.5° C.=*****)	
